From patent US10294202B2, “Pyrrolidinones as herbicides” (FMC Corporation, priority 2013, dated 2019)

Tests used:
[1] = tested on: barnyardgrass; experiment: Test A pre-/postemergence herbicide test; assay type: in vivo, Echinochloa crus-galli
Procedure, shortened: (§1)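 Seeds in loam–sand blend received preemergence directed soil spray; separately, plants 2–10 cm at one- to two-leaf stage received postemergence spray, both with test chemicals in non-phytotoxic solvent with surfactant. After ~10 days in greenhouse, injury rated visually against untreated controls, 0 (no effect) to 100 (complete control).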

[2] = tested on: morningglory; experiment: Test A pre-/postemergence herbicide test; assay type: in vivo, Ipomoea spp.
Procedure, shortened: as §1

[3] = tested on: ducksalad; experiment: Test B flooded paddy test; assay type: in vivo, Heteranthera limosa; settings: 250 g ai/ha, Flood; scale of 0 to 100 where 0 is no effect and 100 is complete control
Procedure, shortened: (§2)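 In-water application to pots flooded 3 cm deep, plants at 2-leaf stage. Held in greenhouse 13–15 days at constant flood depth. Scored 0–100 by eye against controls.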

[4] = tested on: wheat; experiment: Test A pre-/postemergence herbicide test; assay type: in vivo, Triticum aestivum
Procedure, shortened: as §1

[5] = tested on: giant foxtail; experiment: Test A pre-/postemergence herbicide test; assay type: in vivo, Setaria faberii
Procedure, shortened: as §1

[6] = tested on: corn; experiment: Test A pre-/postemergence herbicide test; assay type: in vivo, Zea mays
Procedure, shortened: as §1

[7] = tested on: velvetleaf; experiment: Test A pre-/postemergence herbicide test; assay type: in vivo, Abutilon theophrasti
Procedure, shortened: as §1

[8] = tested on: rice; experiment: Test C flooded paddy test; assay type: in vivo, Oryza sativa; settings: Flood
Procedure, shortened: (§3)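 Ratings reflect visual comparison with controls on a 0–100 scale, where 100 is complete control. Compound is dosed into standing paddy water 3 cm deep over 2-leaf-stage plants, kept in the greenhouse 13 to 15 days.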

[9] = tested on: sedge, umbrella; experiment: Test C flooded paddy test; assay type: in vivo, Cyperus difformis; settings: Flood
Procedure, shortened: as §3

[10] = tested on: sedge, umbrella; experiment: Test B flooded paddy test; assay type: in vivo, Cyperus difformis; settings: 250 g ai/ha, Flood; scale of 0 to 100 where 0 is no effect and 100 is complete control
Procedure, shortened: as §2

[11] = tested on: crabgrass, large; experiment: Test A pre-/postemergence herbicide test; assay type: in vivo, Digitaria sanguinalis
Procedure, shortened: as §1

[12] = tested on: barnyardgrass; experiment: Test C flooded paddy test; assay type: in vivo, Echinochloa crus-galli; settings: Flood
Procedure, shortened: as §3

[13] = tested on: ducksalad; experiment: Test C flooded paddy test; assay type: in vivo, Heteranthera limosa; settings: Flood
Procedure, shortened: as §3

[14] = tested on: rice; experiment: Test B flooded paddy test; assay type: in vivo, Oryza sativa; settings: 250 g ai/ha, Flood; scale of 0 to 100 where 0 is no effect and 100 is complete control
Procedure, shortened: as §2

[15] = tested on: barnyardgrass; experiment: Test B flooded paddy test; assay type: in vivo, Echinochloa crus-galli; settings: 250 g ai/ha, Flood; scale of 0 to 100 where 0 is no effect and 100 is complete control
Procedure, shortened: as §2

[16] = tested on: pigweed; experiment: Test A pre-/postemergence herbicide test; assay type: in vivo, Amaranthus retroflexus
Procedure, shortened: as §1

[17] = tested on: blackgrass; experiment: Test A postemergence herbicide test; assay type: in vivo, Alopecurus myosuroides
Procedure, shortened: (§4)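 Young potted plants in a loam–sand mix, one- to two-leaf stage and 2–10 cm tall, receive the test chemical postemergence and stay in a greenhouse for approximately 10 days. Injury is then judged by eye against untreated plants, scored 0 (none) to 100 (complete control).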

[18] = tested on: ragweed; experiment: Test A pre-/postemergence herbicide test; assay type: in vivo, Ambrosia elatior
Procedure, shortened: as §1

[19] = tested on: kochia; experiment: Test A pre-/postemergence herbicide test; assay type: in vivo, Kochia scoparia
Procedure, shortened: as §1

[20] = tested on: galium; experiment: Test A postemergence herbicide test; assay type: in vivo, Galium aparine
Procedure, shortened: as §4

[21] = tested on: ryegrass, Italian; experiment: Test A pre-/postemergence herbicide test; assay type: in vivo, Lolium multiflorum
Procedure, shortened: as §1

[22] = Postemergence, 125 g ai/ha, 0 to 100 scale, 0 no effect, 100 complete control
[23] = Postemergence, 500 g ai/ha, 0 to 100 scale (0 no effect, 100 complete control)
[24] = Preemergence, 125 g ai/ha, visual rating on 0 to 100 scale (0 no effect, 100 complete control)
[25] = preemergence, 500 g ai/ha, 0 to 100 scale
[26] = 125 g ai/ha, scale of 0 to 100 where 0 is no effect and 100 is complete control, 13 to 15 days
[27] = Postemergence, 125 g ai/ha, 0 to 100 scale, 0 is no effect, 100 is complete control
[28] = Preemergence, 125 g ai/ha, 0 to 100 scale where 0 is no effect and 100 is complete control
[29] = preemergence, 500 g ai/ha, 0 to 100 scale, 0 is no effect and 100 is complete control
[30] = Postemergence, 125 g ai/ha, visual rating on 0 to 100 scale (0 no effect, 100 complete control), approx. 10 days
[31] = 125 g ai/ha, 0 to 100 scale, 0 is no effect, 100 is complete control
[32] = 500 g ai/ha, 0 to 100 scale (0 no effect, 100 complete control)
[33] = 250 g ai/ha, scale of 0 to 100 where 0 is no effect and 100 is complete control, 13 to 15 days

O=C1NCC(c2cccc(Cl)c2)C1C(=O)Nc1ccccc1F (racemic) [Compound 89]
Plant response rating, Barnyardgrass [1, 22]: 60 | Plant response rating, Barnyardgrass [1, 23]: 80 | Barnyardgrass plant response rating [1, 24]: 60 | Plant response rating, Barnyardgrass ([1]; preemergence, 500 g ai/ha, 0 to 100 scale (0 no effect, 100 complete control)): 80 | Plant response rating, Morningglory [2, 22]: 0 | Plant response rating, Morningglory [2, 23]: 10 | Morningglory plant response rating [2, 24]: 0 | Plant response rating, Morningglory [2, 25]: 0 | Plant response rating, Ducksalad [3]: 70 | Plant response rating, Wheat [4, 22]: 0 | Plant response rating, Wheat [4, 23]: 20 | Wheat plant response rating [4, 24]: 0 | Plant response rating, Wheat [4, 25]: 10 | Plant response rating, Foxtail, Giant [5, 22]: 60 | Plant response rating, Foxtail, Giant [5, 23]: 80 | Foxtail, Giant plant response rating [5, 24]: 80 | Plant response rating, Foxtail, Giant [5, 25]: 90 | Plant response rating, Corn [6, 22]: 0 | Plant response rating, Corn [6, 23]: 30 | Corn plant response rating [6, 24]: 0 | Plant response rating, Corn [6, 25]: 0 | Plant response rating, Velvetleaf [7, 22]: 0 | Plant response rating, Velvetleaf [7, 23]: 0 | Velvetleaf plant response rating [7, 24]: 0 | Plant response rating, Velvetleaf [7, 25]: 0 | Plant response rating, Rice [8, 26]: 0 | Plant response rating, Rice ([8]; 250 g ai/ha, scale 0 to 100): 0 | Plant response rating, Rice ([8]; 500 g ai/ha, scale 0 to 100): 0 | Plant response rating, Rice ([8]; 1000 g ai/ha, scale 0 to 100): 0 | Plant response rating, Sedge, Umbrella [9, 26]: 0 | Plant response rating, Sedge, Umbrella ([9]; 250 g ai/ha, scale 0 to 100): 0 | Plant response rating, Sedge, Umbrella ([9]; 500 g ai/ha, scale 0 to 100): 0 | Plant response rating, Sedge, Umbrella ([9]; 1000 g ai/ha, scale 0 to 100): 0 | Plant response rating, Sedge, Umbrella [10]: 0 | Plant response rating, Crabgrass, Large [11, 22]: 60 | Plant response rating, Crabgrass, Large [11, 23]: 80 | Crabgrass, Large plant response rating [11, 24]: 80 | Plant response rating, Crabgrass, Large [11, 25]: 90 | Plant response rating, Barnyardgrass [12, 26]: 20 | Plant response rating, Barnyardgrass ([12]; 250 g ai/ha, scale 0 to 100): 20 | Plant response rating, Barnyardgrass ([12]; 500 g ai/ha, scale 0 to 100): 40 | Plant response rating, Barnyardgrass ([12]; 1000 g ai/ha, scale 0 to 100): 75 | Plant response rating, Ducksalad [13, 26]: 70 | Plant response rating, Ducksalad ([13]; 250 g ai/ha, scale 0 to 100): 85 | Plant response rating, Ducksalad ([13]; 500 g ai/ha, scale 0 to 100): 100 | Plant response rating, Ducksalad ([13]; 1000 g ai/ha, scale 0 to 100): 100 | Plant response rating, Rice [14]: 20 | Plant response rating, Barnyardgrass [15]: 60 | Plant response rating, Pigweed [16, 22]: 0 | Plant response rating, Pigweed [16, 23]: 20 | Pigweed plant response rating [16, 24]: 0 | Plant response rating, Pigweed [16, 25]: 0

CN1CC(c2ccc(F)cc2)C(C(=O)Nc2ccccc2F)C1=O (stereo not drawn) [Compound 270]
Plant response rating, Barnyardgrass [1, 27]: 90 | Plant response rating, Barnyardgrass [1, 23]: 90 | Plant response rating, Barnyardgrass [1, 28]: 60 | Plant response rating, Barnyardgrass [1, 29]: 90 | Plant response rating, Morningglory [2, 30]: 0 | Plant response rating, Blackgrass [17, 31]: 0 | Plant response rating, Blackgrass [17, 32]: 20 | Plant response rating, Wheat [4, 30]: 0 | Plant response rating, Wheat [4, 23]: 20 | Plant response rating, Foxtail, Giant [5, 27]: 60 | Plant response rating, Foxtail, Giant [5, 23]: 90 | Plant response rating, Foxtail, Giant [5, 28]: 80 | Plant response rating, Foxtail, Giant [5, 29]: 90 | Plant response rating, Corn [6, 27]: 0 | Plant response rating, Corn [6, 23]: 30 | Plant response rating, Rice [8, 26]: 0 | Plant response rating, Rice [8, 33]: 0 | Plant response rating, Rice ([8]; 500 g ai/ha, scale 0 to 100): 0 | Plant response rating, Rice ([8]; 1000 g ai/ha, scale 0 to 100): 0 | Plant response rating, Ragweed [18, 23]: 0 | Plant response rating, Ragweed [18, 28]: 0 | Plant response rating, Ragweed [18, 29]: 20 | Plant response rating, Sedge, Umbrella [9, 26]: 0 | Plant response rating, Sedge, Umbrella [9, 33]: 0 | Plant response rating, Sedge, Umbrella ([9]; 500 g ai/ha, scale 0 to 100): 0 | Plant response rating, Sedge, Umbrella ([9]; 1000 g ai/ha, scale 0 to 100): 0 | Plant response rating, Kochia [19, 27]: 0 | Plant response rating, Kochia [19, 23]: 30 | Plant response rating, Kochia [19, 28]: 0 | Plant response rating, Kochia [19, 29]: 80 | Plant response rating, Galium [20, 31]: 20 | Plant response rating, Galium [20, 32]: 50 | Plant response rating, Barnyardgrass [12, 26]: 10 | Plant response rating, Barnyardgrass [12, 33]: 30 | Plant response rating, Barnyardgrass ([12]; 500 g ai/ha, scale 0 to 100): 60 | Plant response rating, Barnyardgrass ([12]; 1000 g ai/ha, scale 0 to 100): 80 | Plant response rating, Ducksalad [13, 26]: 75 | Plant response rating, Ducksalad [13, 33]: 85 | Plant response rating, Ducksalad ([13]; 500 g ai/ha, scale 0 to 100): 100 | Plant response rating, Ducksalad ([13]; 1000 g ai/ha, scale 0 to 100): 100 | Plant response rating, Ryegrass, Italian [21, 23]: 20 | Plant response rating, Ryegrass, Italian [21, 28]: 0 | Plant response rating, Ryegrass, Italian [21, 29]: 0 | Plant response rating, Pigweed [16, 30]: 40 | Plant response rating, Pigweed [16, 23]: 0 | Plant response rating, Pigweed [16, 28]: 0 | Plant response rating, Pigweed [16, 29]: 20
